Target: human TREX1 (Homo sapiens (Human), UniProt Q9NSU2)
Assay: TREX1 Exonuclease Assay
Assay type: biochemical
Conditions: not given
Procedure: For human TREX1, the nucleotide sequence of the gene construct was codon optimized for expression in the bacterial host. The sequence was incorporated into the pMAL-c5e vector (NEB) downstream of a solubility-promoting MBP (maltose binding protein) fusion partner. The fusion protein product was expressed in E. coli strain BL21 (DE3) (Millipore) and purified in a series of chromatographic steps. Initial steps were conducted using a dextrin sepharose affinity column followed by a Q-sepharose ion exchange column (both GE Healthcare). After the second column the MBP partner was removed by incubation with enterokinase (NEB). Further purification was carried out with the second application of a Q-sepharose column followed by a Superdex 75 (GE Healthcare) size exclusion column. Finally, a heparin sepharose column (GE Healthcare) was applied to remove contaminating nucleotides.
To evaluate the effect of compounds on TREX1 activity, test compounds were serially diluted (11-point, 3-fold) from 10 mM stock solutions and delivered to 384-well low-volume assay plates in 80 nL DMSO using an acoustic dispenser. Next, 4 μL of human TREX1 (0.5 nM), or murine TREX1 (1 nM), diluted in assay buffer (20 mM Tris pH 7.5, 5 mM MgCl2, 100 μg/mL BSA, 0.002% Triton X-100, 2 mM DTT), was added to the assay plate. After incubating for 30 minutes, 4 μL of labeled DNA oligonucleotide (500 nM) in assay buffer was added to initiate TREX1 exonuclease activity. The reaction was allowed to proceed for 45 minutes at room temperature prior to the addition of 4 μL of 150 mM EDTA to halt TREX1 activity.

human TREX1, sequence (Q9NSU2 whole entry): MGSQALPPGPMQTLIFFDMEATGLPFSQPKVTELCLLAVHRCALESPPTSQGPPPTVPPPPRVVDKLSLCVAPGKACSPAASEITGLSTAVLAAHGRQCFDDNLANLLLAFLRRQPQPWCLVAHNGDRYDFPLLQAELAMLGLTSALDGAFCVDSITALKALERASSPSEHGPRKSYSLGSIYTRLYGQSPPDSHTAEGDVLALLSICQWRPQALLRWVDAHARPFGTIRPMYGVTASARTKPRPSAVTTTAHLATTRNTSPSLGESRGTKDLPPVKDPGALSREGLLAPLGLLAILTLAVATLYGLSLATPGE

Which IC50 does the source give for `CC(C)Oc1c(CNC(=O)[C@@H](CCC(=O)O)N2CCC(CCc3ccccc3)N3C[C@H](N)C[C@H]3C2=O)ccc(Cl)c1Cl` (stereo partly shown) [Example 138] here?
Its IC50 is less than 1000 nM.

With `COc1c(CNC(=O)[C@@H](CCC(=O)O)N2CCC(CCc3ccccc3)N3C[C@H](N)C[C@H]3C2=O)ccc(Cl)c1Cl` (stereo partly shown) [Example 22] as the compound, how does the IC50 read?
Its IC50 is less than 1000 nM.

Which IC50 does the source give for `COc1c(CNC(=O)[C@@H](CCc2nnn[nH]2)N2CCC(CCc3ccccc3)N3C[C@H](N)C[C@H]3C2=O)ccc(Cl)c1Cl` (stereo partly shown) [Example 119] here?
Its IC50 is less than 1000 nM.

Which IC50 does the source give for `N[C@@H]1C[C@H]2C(=O)N([C@H](CCc3nnn[nH]3)C(=O)NCc3ccc(Cl)c(Cl)c3F)CCC(CCc3ccccc3)N2C1` (stereo partly shown) [Example 120] here?
The IC50 was less than 1000 nM.

Which IC50 does the source give for `N[C@@H]1C[C@H]2C(=O)N([C@H](CCC(=O)O)C(=O)NCc3ccc(Cl)c(Cl)c3F)CCC(CCc3ccccc3)N2C1` (stereo partly shown) [Example 30] here?
The IC50 was less than 1000 nM.

With `CCOc1c(CNC(=O)[C@@H](CCC(=O)O)N2CCC(CCc3ccccc3)N3C[C@H](N)C[C@H]3C2=O)ccc(Cl)c1Cl` (stereo partly shown) [Example 137] as the compound, how does the IC50 read?
The IC50 was less than 1000 nM.

System: THP1 Dual cells, ISRE Lucia reporter gene, transfected with G3-YSD DNA
Assay: Human Cellular EC50 Reporter Assay
Assay type: cell-based
Conditions: 72 h, serum-starved cells transfected with G3-YSD 10 ng/ml, three days
Description: Example E is a cell-based assay for TREX1 inhibitors using THP1 Dual™ cells (Invivogen), a human monocyte cell line that has stable integration of an Interferon Stimulated Response Element (ISRE) Lucia reporter gene. The Lucia gene encodes a secreted luciferase reporter protein, under the control of an ISG54 minimal promoter in conjunction with five IFN-stimulated response elements. Activation of the cGAS-STING pathway in THP1 Dual™ cells leads to enhanced luciferase secretion and increased luminescence.
A cell-based assay was established using THP1 Dual™ cells (InvivoGen), a human monocyte cell line that has stable integration of an Interferon Stimulated Response Element (ISRE) Lucia reporter gene. The Lucia gene encodes a secreted luciferase reporter protein, under the control of an ISG54 minimal promoter in conjunction with five IFN-stimulated response elements. Activation of the cGAS-STING pathway in these cells leads to enhanced luciferase secretion. Three days prior to the assay, cells were transferred to a T75 flask at a density of 3.0×10^5 cells/ml in 20 ml of serum-starved media (RPMI 1640 containing 1% Heat-Inactivated FBS, 1× Glutagro, 10 mM HEPES, 1 mM sodium pyruvate, 1×Pen/Strep, 100 μg/ml Normocin, 100 μg/ml Zeocin, 10 μg/ml Blasticidin). On the day of assay cells were collected by centrifugation, washed in 1×DPBS, and resuspended in the 1% serum media at 3.3×10^5 cells/ml. An aliquot of an aqueous solution of the DNA oligonucleotide G3-YSD (InvivoGen) at 1 mg/ml was diluted 100-fold into the transfection reagent LyoVec (InvivoGen) and incubated at ambient temperature for 50 min to allow complex formation. Test compounds in DMSO were transferred to a standard 96-well tissue culture plate via acoustic dispense of 0.54 μl per well. Serum-starved cells were batch transfected with complex at a final DNA concentration of 10 ng/ml for 60 min at ambient temperature before dispensing 180 ul (60,000 cells) per well into the assay plate. The assay plate was then incubated in a humidified chamber at 37° C. in 5% CO2 for three days. An aliquot of 10 μl was removed from each well to combine with 10 μl of the luciferase detection reagent, QUANTI-Luc™ Gold (InvivoGen) in a white 384-well plate. The luminescent signal was then read using an EnVision plate reader (Perkin Elmer). An EC50 for each compound was determined by plotting the signal as a function of log molar concentration and fitting to a four parameter logistic equation. (see Table 32).

For `CC(C)Oc1c(CNC(=O)[C@@H](CCC(=O)O)N2CCC(CCc3ccccc3)N3C[C@H](N)C[C@H]3C2=O)ccc(Cl)c1Cl` (stereo partly shown) [Example 138], which EC50 is on record?
The EC50 was less than 1000 nM.

How did the EC50 turn out when `COc1c(CNC(=O)[C@@H](CCC(=O)O)N2CCC(CCc3ccccc3)N3C[C@H](N)C[C@H]3C2=O)ccc(Cl)c1Cl` (stereo partly shown) [Example 22] was run?
The EC50 was less than 1000 nM.

With `COc1c(CNC(=O)[C@@H](CCc2nnn[nH]2)N2CCC(CCc3ccccc3)N3C[C@H](N)C[C@H]3C2=O)ccc(Cl)c1Cl` (stereo partly shown) [Example 119] as the compound, how does the EC50 read?
The EC50 was less than 1000 nM.

Which EC50 does the source give for `N[C@@H]1C[C@H]2C(=O)N([C@H](CCc3nnn[nH]3)C(=O)NCc3ccc(Cl)c(Cl)c3F)CCC(CCc3ccccc3)N2C1` (stereo partly shown) [Example 120] here?
Its EC50 is 1000 to 10000 nM.

With `N[C@@H]1C[C@H]2C(=O)N([C@H](CCC(=O)O)C(=O)NCc3ccc(Cl)c(Cl)c3F)CCC(CCc3ccccc3)N2C1` (stereo partly shown) [Example 30] as the compound, how does the EC50 read?
The EC50 was 1000 to 10000 nM.

With `CCOc1c(CNC(=O)[C@@H](CCC(=O)O)N2CCC(CCc3ccccc3)N3C[C@H](N)C[C@H]3C2=O)ccc(Cl)c1Cl` (stereo partly shown) [Example 137] as the compound, how does the EC50 read?
The EC50 was less than 1000 nM.

System: MB49-Luc tumor
Assay: MB49-Luc tumor bearing mice
Assay type: in vivo, C57BL/6 mice
Conditions: 100 μg intra-tumoral Days 1, 3, 6, 9 plus 10 Gy radiation Day 0; by Day 20; vs vehicle alone, 10 Gy + vehicle, or Example 15B + vehicle
Description: The efficacy of the TREX1 inhibitors of the present invention can also be measured in a variety of in vivo assays. Exemplary mammals that can provide models to test the effectiveness of the TREX1 inhibitors of the present invention as anticancer agents include, but are not limited to, mice. Models of tumor growth and other tumor measurements can be used to assess the effectiveness of the anticancer agents described in the current invention. Example F describes an in vivo model of tumor growth in C57BL/6 mice. Compounds of the present invention can be tested in this model for their ability to inhibit growth of tumors. Compounds of the present invention can be used in combinatorial strategies to maximizing the immunogenicity of radiation therapy (Vanpouille-Box (2017) Nature Commun. 8, 81658). […] Ten week old female C57BL/6 mice were purchased from Jackson Laboratory (www.jax.org). During the study, the care and use of animals was conducted in accordance with the regulations of the Association for Assessment and Accreditation of Laboratory 15 Animal Care (AAALAC). […] Tumors were measured in two dimensions using calipers. Tumor volumes were calculated using the formula: volume (mm3)=(length×width2)/2. […]

`N[C@@H]1C[C@H]2C(=O)N([C@H](CCC(=O)O)C(=O)NCc3ccc(Cl)c(Cl)c3)CCC(CCc3ccccc3)N2C1` (stereo partly shown) [Example 15B] was tested. Which Tumor volume did it give?
Its Tumor volume is “reduced tumor volumes”.
